From patent US20090253709A1 (NATIONAL DEFENSE MEDICAL CENTER, priority 2008, published 2009)

Columns and labels:
hTERT expression [1] = test: SEAP assay, H1299/PhTERT-driven SEAP system; type: cell-based, human; conditions: Homo sapiens
Excerpt: The condition of the cells for selecting the telomerase inhibitor must be the cancer cells with telomerase activity. H1299 is a non-small cell lung cancer cell line with telomerase activity. The hTERT communication gene linked behind PhTERT which is located at the fifth chromosome of H1299 cell can be expressed; however, this expression is hard to detect. Therefore, the plasmid having the SEAP communication gene linked behind PhTERT was transfected into H1299 cells. Under the identical condition, after PhTERT was activated, the SEAP communication gene linked behind the plasmid was also activated. This gene could be detected by this analytic method while expressing.
If additionally added reagent can inhibit PhTERT, the linked SEAP communication gene will not be expressed, and the hTERT communication gene linked behind PhTERT at the fifth chromosome will not be expressed. […]
(§1) The cellular medium after the cellular incubation was transferred into the eppondorf tube, and the activity of endogeneous alkaline phosphatase was inactivated at 65° C. for 10 minutes. After centrification, the mixture was obtained by mixing 50 μl of the supernatant with the equal volume of the SEAP buffer. The mixture and the substrate (120 mM of p-nitrophenylphosphate) were preheated at 37° C. for 10 minutes respectively, and the mixture and the substrate were mixed at a ratio of 1:10 and reacted at 37° C. The absorbance of visible light at 405 nm was determined at the appropriate time intervals, and the enzymatic activity of SEAP was represented by the speed of the increasing absorbance at 405 nm.
The selection of telomerase inhibitors of the anthraquinone compounds provided in the present invention was performed by the H1299/PhTERT-driven SEAP system. SEAP is the communication gene in this drug selection model. The SEAP inhibition was shown as follows. The quantitative cellular medium obtained after the 24-hour drug-treatment and the identical inactivation was reacted with the quantitative SEAP substrate, and the absorbance at 405 nm was detected for 5 time intervals. Subsequently, the linear slope of absorbance to the measuring time was calculated, and the variance of absorbance at 405 nm per minute was represented and compared with the SEAP-producing result of drug-untreated H1299 cells. In addition, the influence of the cell-treated drug solution to the cellular proliferation and the drug toxicity to the cells were considered, and the cellular growth was evaluated by the MTT assay. The drug-treated cells were analyzed by the SEAP assay and the data analysis of MTT assay at the same time. Both results were compared so as to delete the influence of cell number or the activity to SEAP, and the dose-dependent phenomenon could be anticipated in the range of drug concentration designed by the laboratory.
In the preliminary selection, the highest concentration was 1000 μM, and 10-fold serial dilutions were done. Therefore, the final concentrations for treating cells were 1 μM, 10 μM and 100 μM, and the drug concentrations were repeated for 5 times. Since the chemically-synthetic drugs have colors thereon, the SEAP value of drug-treatment without cells was also determined to be the background value which was deducted while treating with the drugs. The candidate drug for inhibiting telomerase on the hTERT gene expression level was evaluated and anticipated.

hTERT expression [2] = test: SEAP assay in hTERT-BJ1-PTERT(3.4)-SEAP cells; type: cell-based; conditions: Homo sapiens, read-out: SEAP (Inhibition μM ± SD)
Protocol: A total of 2×10^3 hTERT-BJ1-PTERT(3.4)-SEAP cells were seeded in the 96-well cell culture plate, and incubated with DMEM (GIBCO®)/glucose mixture and Medium 199 (GIBCO®)/10% FBS/1 mM sodium pyruvate (GIBCO®)/4 mM L-glutamine (GIBCO®) mixture at a ratio of 4:1 at 37° C. for 24 hours. When the cells were attached in the bottom of the well, the seriously-diluted compounds with different concentrations ([…]) were treated with the cells for 48 hours, and the PTERT(3.4)-SEAP cells without drug treatment were being the control. After 48 hours of drug treatment, the cultured medium were collected for performing the analysis of SEAP activity. The cells were washed with 1×PBS once immediately, and the MTT assay was performed to compare the compounds with the relative toxicity or the influence to the proliferation and activity.
as §1

[3] = NCI-H1299, H1299, compound concentration 1 μM, read-out: SEAP (Inhibition μM ± SD)
[4] = NCI-H1299, H1299, compound concentration 10 μM, read-out: SEAP (Inhibition μM ± SD)
[5] = NCI-H1299, H1299, compound concentration 100 μM, read-out: SEAP (Inhibition μM ± SD)
[6] = BJ1, compound concentration 1 μM
[7] = BJ1, compound concentration 10 μM
[8] = BJ1, compound concentration 100 μM
[9] = NCI-H1299, read-out: SEAP (Inhibition μM ± SD)

melting point [°C] | SMILES | activity at 1 µM (hTERT expression [1]; [3]) [%] | activity at 10 µM (hTERT expression [1]; [4]) [%] | activity at 100 µM (hTERT expression [1]; [5]) [%] | activity at 1 µM (hTERT expression [2]; [6]) [%] | activity at 10 µM (hTERT expression [2]; [7]) [%] | activity at 100 µM (hTERT expression [2]; [8]) [%] | activity at 1 µM (hTERT expression [1]; [9]) [%] | activity at 10 µM (hTERT expression [1]; [9]) [%] | activity at 1 µM (hTERT expression [2]) [%] | activity at 10 µM (hTERT expression [2]) [%] | activity at 100 µM (hTERT expression [2]) [%] | activity at 100 µM (hTERT expression [1]; [9]) [%]
168 | CCCCNCCC(=O)Nc1ccc2c(c1)C(=O)c1cc(NC(=O)CCNCCCC)ccc1C2=O [Compound 17, 2,7-Bis[3-(butylamino)propionamido]anthraquinone] | 56 ± 14 | 33 ± 9 | 22 ± 17 | 88 ± 34 | 95 ± 46 | 111 ± 25 | – | – | – | – | – | –
266 | O=C(CCN1CCCCC1)Nc1ccc2c(c1)C(=O)c1cc(NC(=O)CCN3CCCCC3)ccc1C2=O [Compound 19, 2,7-Bis[3-(piperidino)propionamido]anthraquinone] | 55 ± 23 | 33 ± 8 | 25 ± 10 | 186 ± 47 | 226 ± 51 | 234 ± 20 | – | – | – | – | – | –
284 | CN1CCN(CCC(=O)Nc2ccc3c(c2)C(=O)c2cc(NC(=O)CCN4CCN(C)CC4)ccc2C3=O)CC1 [Compound 23, 2,7-Bis[3-(N-methylpiperazino)propionamido]anthraquinone] | 75 ± 16 | 52 ± 11 | 21 ± 10 | – | 138 ± 115 | 232 ± 66 | – | – | – | – | – | –
218 | O=C(CCN1CCNCC1)Nc1ccc2c(c1)C(=O)c1cc(NC(=O)CCN3CCNCC3)ccc1C2=O [Compound 24, 2,7-Bis[3-(piperazino)propionamido]anthraquinone] | 75 ± 26 | 71 ± 21 | 71 ± 15 | 163 ± 22 | 118 ± 26 | 131 ± 29 | – | – | – | – | – | –
234 | O=C(CCCCl)Nc1ccc2c(c1)C(=O)c1cc(NC(=O)CCCCl)ccc1C2=O [Compound 25, 2,7-Bis(4-chlorobutyramido)anthraquinone] | 88 ± 19 | 86 ± 13 | 78 ± 17 | 13 ± 58 | 42 ± 45 | 75 ± 16 | – | – | – | – | – | –
291 | CCC(=O)Nc1ccc2c(c1)C(=O)c1cc(NC(=O)CC)ccc1C2=O [Compound 27, 2,7-Bis(propionamido)anthraquinone] | 90 ± 23 | 95 ± 14 | 85 ± 16 | 78 ± 10 | 64 ± 8 | 51 ± 8 | – | – | – | – | – | –
224 | O=C(Nc1ccc2c(c1)C(=O)c1cc(NC(=O)c3ccccc3)ccc1C2=O)c1ccccc1 [Compound 29, 2,7-Bis(benzoamido)anthraquinone] | 104 ± 10 | 92 ± 11 | 85 ± 19 | 89 ± 2 | 72 ± 8 | 36 ± 13 | – | – | – | – | – | –

SMILES | melting point [°C] | activity at 1 µM (hTERT expression [1]; [3]) [%] | activity at 10 µM (hTERT expression [1]; [4]) [%] | activity at 100 µM (hTERT expression [1]; [5]) [%] | activity at 1 µM (hTERT expression [2]; [6]) [%] | activity at 10 µM (hTERT expression [2]; [7]) [%] | activity at 100 µM (hTERT expression [2]; [8]) [%] | activity at 1 µM (hTERT expression [1]; [9]) [%] | activity at 10 µM (hTERT expression [1]; [9]) [%] | activity at 1 µM (hTERT expression [2]) [%] | activity at 10 µM (hTERT expression [2]) [%] | activity at 100 µM (hTERT expression [2]) [%] | activity at 100 µM (hTERT expression [1]; [9]) [%]
CN(C)CCC(=O)Nc1ccc2c(c1)C(=O)c1cc(NC(=O)CCN(C)C)ccc1C2=O [Compound 20, 2,7-Bis[3-(dimethylamino)propionamido]anthraquinone] | 196 | – | – | – | – | – | – | 5 ± 94 | 13 ± 30 | 86 ± 2 | 61 ± 2 | 38 | –
CCNCCC(=O)Nc1ccc2c(c1)C(=O)c1cc(NC(=O)CCNCC)ccc1C2=O [Compound 22, 2,7-Bis[3-(ethylamino)propionamido]anthraquinone] | 181 | – | – | – | – | – | – | 68 ± 29 | 33 ± 24 | 211 ± 38 | 217 ± 133 | 97 ± 87 | 22 ± 13
CC(=O)Nc1ccc2c(c1)C(=O)c1cc(NC(C)=O)ccc1C2=O [Compound 26, 2,7-Bis(acetamido)anthraquinone] | 340 | – | – | – | – | – | – | 97 ± 10 | 87 ± 14 | 123 ± 5 | 117 ± 3 | 117 ± 5 | 74 ± 18
